Consider 4 compounds from ChEMBL document CHEMBL1201862, “PubChem BioAssay data set” (2004).

Holding throughout (test): inhibition of tumour cell growth, NCI panel, 48 h
The subject of experiment [1] is A498.
The test system of experiment [2] is UACC-257.
Experiment [3] has as its system SF-539.
Experiment [4] has as its system LOX IMVI.
Experiment [5] concerns NCI-H460.
The test system of experiment [6] is OVCAR-3.
Experiment [7] relates to M14.
The subject of experiment [8] is OVCAR-4.
Experiment [9] deals with UACC-62.
Experiment [10] has as its system OVCAR-5.
The test system of experiment [11] is RXF 393.
For experiment [12], the system named is SNB-75.
The test system of experiment [13] is HCC 2998.
In experiment [14] the test system is M19-MEL.
The test system of experiment [15] is SW-620.
The subject of experiment [16] is NCI-H23.
Experiment [17] relates to HCT-116.
The subject of experiment [18] is MDA-MB-231.
The subject of experiment [19] is MDA-N.
Experiment [20] has as its system BT-549.

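These data come from cells grown in 96-well plates and exposed to compound for 48 hours at five concentrations. GI50: concentration for 50% inhibition of growth.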 Activity calls are given as the source filed them. Rule as the data show it: active = GI50 up to about 1.1 µM and inactive = higher. Where only a bound is given, the exact number is not on record here.

As to `N[C@H](C(=O)O)[C@@H](Cl)CC(=O)O`, the GI50 in [1], in experiment [2], in experiment [3], in experiment [4], in [5] and in experiment [6] was > 100 µM (inactive) throughout. For the same compound, the GI50 in experiment [7], in [8], in [9], in experiment [10], in experiment [11] and in experiment [12] was > 100 µM (inactive) in each case. Also, the GI50 in experiment [13], in experiment [14], in experiment [15], in experiment [16] and in experiment [17] was > 100 µM (inactive) throughout.

For `C[Si](C)(C)/N=C1\N2C(=NC1(C(F)(F)F)C(F)(F)F)Sc1ccccc12`, the GI50 in experiment [1], in experiment [2], in experiment [3], in experiment [4], in [5] and in experiment [6] was > 50 µM (inactive) in each case. Besides, the GI50 in experiment [7], in experiment [8], in experiment [9], in experiment [10], in experiment [11] and in [12] was > 50 µM (inactive) each time. Also, the GI50 in experiment [13], in experiment [14], in experiment [15], in [16] and in experiment [17] was > 50 µM (inactive) each time.

For the compound `CCOC(=O)C(CC/C=C\c1ccccc1)N1CCC[C@H]1C(=O)OC` (some centres undefined), the GI50 in experiment [1], in experiment [2], in experiment [3], in [4], in experiment [5] and in experiment [6] was > 100 µM (inactive) in each case. For the same compound, the GI50 in [7], in [8], in experiment [9], in [10], in experiment [11] and in experiment [12] was > 100 µM (inactive) each time. Further, the GI50 in experiment [13], in experiment [14], in experiment [15], in [16] and in experiment [17] was > 100 µM (inactive) each time.

As to `COc1cccc2c1C(=N)c1c(O)c3c(c(O)c1C2=O)C[C@@](O)(C(C)=O)C[C@@H]3OC1CC(N)C(O)C(C)O1` (some centres undefined), the GI50 in experiment [18] was < 0.01 µM (active); in [1] it was 3 µM (inactive); in [3] it was 0.00789 µM (active); in [19] it was < 0.01 µM (active); in experiment [4] it was 0.00638 µM (active); in experiment [5] it was 0.00573 µM (active). The GI50 was 0.00957 µM (active) in experiment [7]; 1.83 µM (inactive) in experiment [8]; 0.0094 µM (active) in experiment [9]; 0.000445 µM (active) in experiment [10]; < 0.01 µM (active) in experiment [20]; 1.23 µM (inactive) in [11]. Besides, the GI50 in [12] was 0.00764 µM (active); in experiment [13], 0.409 µM (active); in experiment [14], 0.486 µM (active); in experiment [15] it was 0.199 µM (active); in experiment [16], 0.00875 µM (active); in experiment [17], 0.00745 µM (active).
